We go through 9 compounds from patent US10647664B2, “Substituted hydroxamic acid compounds” (Duke University, priority 2013, dated 2020).

Values after ≈ are worked out from the molar mass of the structure shown. Bounds are passed on as bounds.

In experiment [1] the test system is wild-type E. coli (W3110). Briefly: Minimum inhibitory concentration (MIC), E. coli W3110. In kind it is cell-based. Particulars: LB medium, 5% DMSO, 22 hours at 37° C., MTT; for MIC: Escherichia coli, 22 h.
In another experiment the test system is P. aeruginosa PA01. Briefly: MIC, P. aeruginosa PA01. In kind it is cell-based. Particulars: Pseudomonas aeruginosa.
Another experiment concerns V. cholera (P4). Kind of experiment: MIC, V. cholera (P4). In kind it is cell-based. Also noted: unit not given beside the values. The method, then:
(§1) MICs are determined according to the NCCLS protocol using 96-well plates. Briefly, diluted bacterial cells (10^6 cells/mL) are added into each well of the 96-well plates containing LB medium with 5% DMSO and various concentrations of the compound of disclosure. After incubation of the plates for 22 hours at 37° C., [4,5-dimethylthiazol-2-yl]-2,5-diphenyltetrazolium bromide solution (MTT) is added (final concentration, 0.2 mg/mL) and incubated at 37° C. for another 3 hrs. MIC is determined as the lowest concentration of an antibiotic that prevented color change (yellow to purple).
(§2) Additional results of minimum inhibitory concentrations (MICs) using V. cholera (P4), S. typhimurium (LT2), and K. pneumonia (43816) are shown in Table 2

The test system of another experiment is K. pneumonia (43816). Kind of experiment: MIC, K. pneumonia (43816). In kind it is cell-based. The method, then: as §1, §2
Another experiment relates to S. typhimurium (LT2). Briefly: MIC, S. typhimurium (LT2). In kind it is cell-based. As to the method:
as §1, §2

In experiment [2] the test system is F. novicida U112 (FNU112). Briefly: microbe, parasite or virus in culture. In kind it is cell-based. The conditions noted are these: Francisella tularensis, read-out: MIC FNU112, F. novicida U112.
Experiment [3] has as its system N. gonorrhoeae 35/02 (drug-resistant strain). The conditions noted are these: N. gonorrhoeae strain 35/02; description of the strain's resistance; cited from earlier work.

Turning to `C[C@@H](O)[C@](C)(NC(=O)c1ccc(C#CC#Cc2ccc(N)cc2)cc1)C(=O)NO` [Example 1, 4-((4-aminophenyl)buta-1,3-diynyl)-N-(3-hydroxy-1-(hydroxyamino)-2-methyl-1-oxobutan-2-yl)benzamide], the MIC was 0.18 µg/mL (≈ 0.46 µM) in experiment [1]; 15 µg/mL (≈ 38.3 µM) with P. aeruginosa PA01 (PA01); 6.25 µg/mL (≈ 16 µM) against P. aeruginosa PA01 (PA01, P. aeruginosa PA01). In addition, in experiment [1], the “MIC E. coli W3110” value came to 0.13 µg/mL (≈ 0.332 µM). In the experiment with V. cholera (P4), the “MIC V. cholera (P4)” value is given as 0.03. Also, the “MIC K. pneumonia (43816)” value against K. pneumonia (43816) stood at 0.6. Also, the “MIC S. typhimurium (LT2)” value in the experiment with S. typhimurium (LT2) is given as 0.144.
In the case of `CC(NC(=O)c1ccc(C#Cc2ccc(CN3CCOCC3)cc2)cc1)(C(=O)NO)C(C)(O)C(F)F` (centres unmarked) [Example 2, N-(4,4-difluoro-3-hydroxy-1-(hydroxyamino)-2,3-dimethyl-1-oxobutan-2-yl)-4-((4-(morpholinomethyl)phenyl)ethynyl)benzamide], the MIC in experiment [2] is 50 µg/mL (≈ 99.7 µM); in experiment [1], 6.25 µg/mL (≈ 12.5 µM).
For `C[C@@](O)(C(F)F)[C@H](NCCCc1ccc(C#Cc2ccccc2)cc1)C(=O)NO` [Example 3, (2S,3S)-4,4-difluoro-N,3-dihydroxy-3-methyl-2-((3-(4-(phenylethynyl)phenyl)propyl)amino)butanamide], the MIC in experiment [1] turned out to be 1.6 µg/mL (≈ 3.98 µM).
Regarding `C[C@@](O)(C(F)F)[C@H](NC(=O)c1ccc(C#Cc2ccc(CN3CCNCC3)cc2)cc1)C(=O)NO` [Example 19], the MIC in experiment [2] is 2.5 µg/mL (≈ 5.14 µM); in experiment [1], above 1 µg/mL; against P. aeruginosa PA01 (PA01) it was above 5 µg/mL.
In the case of `C[C@@](O)(C(F)F)[C@H](NC(=O)c1ccc(C#CC#CCN2CCOCC2)cc1)C(=O)NO` [Example 21, N-((2S,3S)-4,4-difluoro-3-hydroxy-1-(hydroxyamino)-3-methyl-1-oxobutan-2-yl)-4-(5-morpholinopenta-1,3-diyn-1-yl)benzamide], the MIC in experiment [2] is above 5 µg/mL; in experiment [1] it was 0.46 µg/mL (≈ 1.06 µM); with P. aeruginosa PA01 (PA01), 1.56 µg/mL (≈ 3.58 µM).
As for `CC(C#CC#Cc1ccc(C(=O)N[C@H](C(=O)NO)[C@](C)(O)C(F)F)cc1)N1CCOCC1` (stereo partly drawn) [Example 22, N-((2S,3S)-4,4-difluoro-3-hydroxy-1-(hydroxyamino)-3-methyl-1-oxobutan-2-yl)-4-(5-morpholinohexa-1,3-diyn-1-yl)benzamide], the MIC in experiment [2] is above 5 µg/mL; in experiment [1] it was above 1 µg/mL; in the experiment on P. aeruginosa PA01 (PA01), 5 µg/mL (≈ 11.1 µM).
Consider `CC(CCn1ccc(C#Cc2ccccc2)cc1=O)(C(=O)NO)S(C)(=O)=O` (centres unmarked) [Example 30, N-hydroxy-2-methyl-2-(methylsulfonyl)-4-(2-oxo-4-(phenylethynyl)pyridin-1 (2H)-yl)butanamide], for which the MIC (in experiment [1]; against P. aeruginosa PA01 (PA01)) was below 0.78 µg/mL in each case.
With `CO/N=C(\C(=O)N[C@@H]1C(=O)N2C(C(=O)O)=C(CSc3nc(=O)c(=O)[nH]n3C)CS[C@H]12)c1csc(N)n1` [ceftriaxone], the MIC in experiment [3] was 0.12 µg/mL (≈ 0.216 µM).
Consider penicillin, for which the MIC in experiment [3] is 6 µg/mL.
